Source: US20190224186A1, “TREATMENT OF MULTIPLE SCLEROSIS WITH CHS-131” (InteKrin Therapeutics, Inc., priority 2016, published 2019)
Where “and” joins values, the source holds several entries; their conditions need not be identical. Equal entries are not always repeated.

What was measured:
[1] = tested on: MS patients in the relapsing and remitting course of the disease (RRMS); test: Calculated dose response curve: expected new gadolinium CE T1-weighted lesions over six months; set-up: species or system human
Procedure: To test the hypothesis that women will benefit from higher doses of CHS-131 and identify efficacious doses of CHS-131 for women, a dose response curve was calculated. The dose response curve was calculated to determine the efficacy of various daily dose of CHS-131 for males and females. The dose-response curve is assumed to have the following form: RDose=α exp β−Dose+γ Parameter β was determined from negative binomial regression using the observed total new GAD CE lesions 6 Months and numeric dosage of 0, 1, 3 mg. Parameters α and γ were determined using least-squares method on the observed mean total new GAD CE lesions 6 Months. Based on the clinical trial data, we calculated the expected number of new gadolinium CE T1-weighted lesions that would be seen over six months on doses of CHS-131 ranging from 1 to 10 mg per day. Table 7 below provides a tabular report of the percent reduction compared to the number of lesions at a 0 mg dose.

[2] = tested on: MS patients in the relapsing and remitting course of the disease (RRMS); test: Phase 2 trial: new and enlarged T2 lesions over 6 months; type: in vivo, human; details: for mean number of new and enlarged T2 lesions over 6 months: n=76
Procedure: A Phase 2, randomized, double-blind, placebo-controlled, multi-center clinical trial of CHS-131 for the treatment of multiple sclerosis (MS) was conducted. The primary endpoint was the number of new gadolinium contrast-enhancing (CE) T1-weighted lesions on monthly MRI over 6 months. The study enrolled MS patients in the relapsing and remitting course of the disease (RRMS) who had been diagnosed within ≤3 years of enrollment. Patients had to be treatment-naïve, have ≥1 gadolinium-positive lesion within 12 months of enrollment, and have an Expanded Disability Status Score (EDSS) of 0-6 at screening. Part 1 was a double-blind, parallel-group, 6-month study. Patients were randomized to oral CHS-131 at 3 mg or 1 mg or placebo in a 1:1:1 ratio at 21 sites in Russia. Monthly MRIs were read in a blinded fashion at the Buffalo Neuroimaging and Analysis Center, Buffalo, N.Y., USA. Part 2 is an open label, 6-month, safety extension study, in which all subjects transition to 1 mg CHS-131 daily, to evaluate clinical response, CE lesions on MM, and safety. The mean number of new and enlarged lesions over 6 months was 3.43 for 3 mg CHS131 (n=76), 4.21 for 1 mg CHS131 (n=76), and 4.89 for placebo (n=74). The response was dose-dependent.

For `O=S(=O)(Nc1cc(Cl)c(Oc2cnc3ccccc3c2)c(Cl)c1)c1ccc(Cl)cc1Cl` [CHS-131], the “Expected # of Lesions” value ([1]; Females, 1 mg) was 7.14, the “Expected Percent Change from Placebo” value ([1]; Females, 1 mg) was −25.9% and the “Expected Percent Reduction vs 0 mg dose” value ([1]; Females, 1 mg) was 13.98%. For the same molecule, the “Expected # of Lesions” value ([1]; Females, 2 mg) was 6.15, the “Expected Percent Change from Placebo” value ([1]; Females, 2 mg) was −36.0% and the “Expected Percent Reduction vs 0 mg dose” value ([1]; Females, 2 mg) was 25.90%. For the same molecule, the “Expected # of Lesions” value ([1]; Females, 3 mg) was 5.31, the “Expected Percent Change from Placebo” value ([1]; Females, 3 mg) was −44.7% and the “Expected Percent Reduction vs 0 mg dose” value ([1]; Females, 3 mg) was 36.02%. For the same molecule, the “Expected # of Lesions” value ([1]; Females, 4 mg) was 4.59, the “Expected Percent Change from Placebo” value ([1]; Females, 4 mg) was −52.1% and the “Expected Percent Reduction vs 0 mg dose” value ([1]; Females, 4 mg) was 44.70%. For the same molecule, the “Expected # of Lesions” value ([1]; Females, 5 mg) was 3.97, the “Expected Percent Change from Placebo” value ([1]; Females, 5 mg) was −58.5% and the “Expected Percent Reduction vs 0 mg dose” value ([1]; Females, 5 mg) was 52% and 52.17%. The “Expected # of Lesions” value ([1]; Females, 6 mg) was 3.45, the “Expected Percent Change from Placebo” value ([1]; Females, 6 mg) was −63.9% and the “Expected Percent Reduction vs 0 mg dose” value ([1]; Females, 6 mg) was 58.43%. For the same molecule, the “Expected # of Lesions” value ([1]; Females, 7 mg) was 3.00, the “Expected Percent Change from Placebo” value ([1]; Females, 7 mg) was −68.5% and the “Expected Percent Reduction vs 0 mg dose” value ([1]; Females, 7 mg) was 63.86%. For the same molecule, the “Expected # of Lesions” value ([1]; Females, 8 mg) was 2.62, the “Expected Percent Change from Placebo” value ([1]; Females, 8 mg) was −72.4% and the “Expected Percent Reduction vs 0 mg dose” value ([1]; Females, 8 mg) was 68.43%. The “Expected # of Lesions” value ([1]; Females, 9 mg) was 2.29, the “Expected Percent Change from Placebo” value ([1]; Females, 9 mg) was −75.8% and the “Expected Percent Reduction vs 0 mg dose” value ([1]; Females, 9 mg) was 72.41%. For the same molecule, the “Expected # of Lesions” value ([1]; Females, 10 mg) was 2.01, the “Expected Percent Change from Placebo” value ([1]; Females, 10 mg) was −100.0% and the “Expected Percent Reduction vs 0 mg dose” value ([1]; Females, 10 mg) was 75.78%. The “Expected # of Lesions” value ([1]; Males & Females, 1 mg) was 6.79, the “Expected Percent Change from Placebo” value ([1]; Males & Females, 1 mg) was −31.4% and the “Expected Percent Reduction vs 0 mg dose” value ([1]; Males & Females, 1 mg) was 17.20%. The “Expected # of Lesions” value ([1]; Males & Females, 2 mg) was 5.63, the “Expected Percent Change from Placebo” value ([1]; Males & Females, 2 mg) was −43.0% and the “Expected Percent Reduction vs 0 mg dose” value ([1]; Males & Females, 2 mg) was 31.34%. The “Expected # of Lesions” value ([1]; Males & Females, 3 mg) was 4.67, the “Expected Percent Change from Placebo” value ([1]; Males & Females, 3 mg) was −52.6% and the “Expected Percent Reduction vs 0 mg dose” value ([1]; Males & Females, 3 mg) was 43.05%. For the same molecule, the “Expected # of Lesions” value ([1]; Males & Females, 4 mg) was 3.89, the “Expected Percent Change from Placebo” value ([1]; Males & Females, 4 mg) was −60.5% and the “Expected Percent Reduction vs 0 mg dose” value ([1]; Males & Females, 4 mg) was 52.56%. The “Expected # of Lesions” value ([1]; Males & Females, 5 mg) was 3.24, the “Expected Percent Change from Placebo” value ([1]; Males & Females, 5 mg) was −66.9% and the “Expected Percent Reduction vs 0 mg dose” value ([1]; Males & Females, 5 mg) was 60.49%. The “Expected # of Lesions” value ([1]; Males & Females, 6 mg) was 2.71, the “Expected Percent Change from Placebo” value ([1]; Males & Females, 6 mg) was −72.3% and the “Expected Percent Reduction vs 0 mg dose” value ([1]; Males & Females, 6 mg) was 66.95%. For the same molecule, the “Expected # of Lesions” value ([1]; Males & Females, 7 mg) was 2.27, the “Expected Percent Change from Placebo” value ([1]; Males & Females, 7 mg) was −76.6% and the “Expected Percent Reduction vs 0 mg dose” value ([1]; Males & Females, 7 mg) was 72.32%. For the same molecule, the “Expected # of Lesions” value ([1]; Males & Females, 8 mg) was 1.92, the “Expected Percent Change from Placebo” value ([1]; Males & Females, 8 mg) was −80.2% and the “Expected Percent Reduction vs 0 mg dose” value ([1]; Males & Females, 8 mg) was 76.59%. The “Expected # of Lesions” value ([1]; Males & Females, 9 mg) was 1.62, the “Expected Percent Change from Placebo” value ([1]; Males & Females, 9 mg) was −83.2% and the “Expected Percent Reduction vs 0 mg dose” value ([1]; Males & Females, 9 mg) was 80.24%. The “Expected # of Lesions” value ([1]; Males & Females, 10 mg) was 1.38, the “Expected Percent Change from Placebo” value ([1]; Males & Females, 10 mg) was −100.0% and the “Expected Percent Reduction vs 0 mg dose” value ([1]; Males & Females, 10 mg) was 83.17%. The “Expected # of Lesions” value ([1]; Males, 1 mg) was 6.33, the “Expected Percent Change from Placebo” value ([1]; Males, 1 mg) was −42.0% and the “Expected Percent Reduction vs 0 mg dose” value ([1]; Males, 1 mg) was 23.73%. The “Expected # of Lesions” value ([1]; Males, 2 mg) was 4.81, the “Expected Percent Change from Placebo” value ([1]; Males, 2 mg) was −56.1% and the “Expected Percent Reduction vs 0 mg dose” value ([1]; Males, 2 mg) was 42.05%. For the same molecule, the “Expected # of Lesions” value ([1]; Males, 3 mg) was 3.64, the “Expected Percent Change from Placebo” value ([1]; Males, 3 mg) was −67.1% and the “Expected Percent Reduction vs 0 mg dose” value ([1]; Males, 3 mg) was 56% and 56.14%. The “Expected # of Lesions” value ([1]; Males, 4 mg) was 2.73, the “Expected Percent Change from Placebo” value ([1]; Males, 4 mg) was −75.5% and the “Expected Percent Reduction vs 0 mg dose” value ([1]; Males, 4 mg) was 67.11%. For the same molecule, the “Expected # of Lesions” value ([1]; Males, 5 mg) was 2.03, the “Expected Percent Change from Placebo” value ([1]; Males, 5 mg) was −82.1% and the “Expected Percent Reduction vs 0 mg dose” value ([1]; Males, 5 mg) was 75.54%. The “Expected # of Lesions” value ([1]; Males, 6 mg) was 1.49, the “Expected Percent Change from Placebo” value ([1]; Males, 6 mg) was −87.1% and the “Expected Percent Reduction vs 0 mg dose” value ([1]; Males, 6 mg) was 82.05%. The “Expected # of Lesions” value ([1]; Males, 7 mg) was 1.07, the “Expected Percent Change from Placebo” value ([1]; Males, 7 mg) was −91.0% and the “Expected Percent Reduction vs 0 mg dose” value ([1]; Males, 7 mg) was 87.11%. For the same molecule, the “Expected # of Lesions” value ([1]; Males, 8 mg) was 0.74, the “Expected Percent Change from Placebo” value ([1]; Males, 8 mg) was −94.1% and the “Expected Percent Reduction vs 0 mg dose” value ([1]; Males, 8 mg) was 91.08%. The “Expected # of Lesions” value ([1]; Males, 9 mg) was 0.49, the “Expected Percent Change from Placebo” value ([1]; Males, 9 mg) was −96.4% and the “Expected Percent Reduction vs 0 mg dose” value ([1]; Males, 9 mg) was 94.10%. For the same molecule, the “Expected # of Lesions” value ([1]; Males, 10 mg) was 0.30, the “Expected Percent Change from Placebo” value ([1]; Males, 10 mg) was −100.0% and the “Expected Percent Reduction vs 0 mg dose” value ([1]; Males, 10 mg) was 96.39%. For the same molecule, the “reduction in new lesions on the dose response curve in Table 8” value ([1]; men, 3 mg per day) was 67%, the “expected reduction in lesions as compared to placebo (Table 8)” value ([1]; men, 5 mg per day as printed) was 67% and the “expected reduction in lesions as compared to placebo (Table 8)” value ([1]; women, 5 mg per day) was 56%. The “reduction in T2 lesions compared to placebo (LSMeans analysis)” value ([2]; 1 mg) was 14%, the “mean number of new and enlarged T2 lesions over 6 months” value ([2]; 1 mg) was 4.21 and the “mean number of new and enlarged T2 lesions over 6 months” value ([2]; 3 mg) was 3.43. For the same molecule, the “reduction in T2 lesions compared to placebo (LSMeans analysis)” value ([2]; 3 mg, p=0.0767) was 30%.
